Test results reported in ChEMBL document CHEMBL1201862, “PubChem BioAssay data set” (2004).
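How tested: cells in 96-well plates exposed to compound for 48 hours at five concentrations. GI50 marks 50% less growth.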 Activity calls are given as the source filed them. Rule as the data show it: active = GI50 up to about 1.1 µM and inactive = higher.

What was measured:
Assay in all cases: NCI anticancer screen, dose series, 48 h
DU-145 = test system: DU-145
SK-MEL-2 = test system: SK-MEL-2
SF-268 = test system: SF-268
RXF 393 = test system: RXF 393
U-251 = test system: U-251
NCI-H23 = test system: NCI-H23
OVCAR-5 = test system: OVCAR-5
SK-MEL-5 = test system: SK-MEL-5
RPMI-8226 = test system: RPMI-8226
KM12 = test system: KM12
NCI-H460 = test system: NCI-H460
IGROV-1 = test system: IGROV-1
A498 = test system: A498
SW-620 = test system: SW-620
HOP-92 = test system: HOP-92
HT-29 = test system: HT-29
SF-295 = test system: SF-295
CAKI-1 = test system: CAKI-1
Malme-3M = test system: Malme-3M
TK-10 = test system: TK-10

Structure (SMILES)	GI50 (DU-145)	GI50 (SK-MEL-2)	GI50 (SF-268)	GI50 (RXF 393)	GI50 (U-251)	GI50 (NCI-H23)	GI50 (OVCAR-5)	GI50 (SK-MEL-5)	GI50 (RPMI-8226)	GI50 (KM12)	GI50 (NCI-H460)	GI50 (IGROV-1)	GI50 (A498)	GI50 (SW-620)	GI50 (HOP-92)	GI50 (HT-29)	GI50 (SF-295)	GI50 (CAKI-1)	GI50 (Malme-3M)	GI50 (TK-10)
N=C(N)NS(=O)(=O)c1ccc(Nc2c3ccccc3nc3c(C(=O)NNCCO)cccc23)cc1	0.578 µM (active)	0.156 µM (active)	0.141 µM (active)	0.186 µM (active)	0.139 µM (active)	0.133 µM (active)	0.499 µM (active)	0.123 µM (active)	0.137 µM (active)	0.141 µM (active)	0.158 µM (active)	0.153 µM (active)	> 1 µM (active)	0.164 µM (active)	0.284 µM (active)	0.352 µM (active)	0.407 µM (active)	0.198 µM (active)	0.14 µM (active)	> 1 µM (active)
COc1ccc2c(C(=O)c3cn(CCN4CCOCC4)c4ccccc34)cccc2c1	> 23.6 µM (inactive)	> 100 µM (inactive)	> 80.2 µM (inactive)	> 67.6 µM (inactive)	7.33 µM (inactive)	> 100 µM (inactive)	> 100 µM (inactive)	60 µM (inactive)	21.2 µM (inactive)	3.95 µM (inactive)	4.65 µM (inactive)	> 91 µM (inactive)	> 100 µM (inactive)	31 µM (inactive)	> 100 µM (inactive)	53.6 µM (inactive)	5.6 µM (inactive)	> 46 µM (inactive)	15.8 µM (inactive)	> 100 µM (inactive)
CN1CC[C@]2(c3cccc(O)c3)CC(=O)/C(=C/c3ccccc3)[C@@H]1C2.[O-][Cl+3]([O-])([O-])O	5.52 µM (inactive)	2.95 µM (inactive)	3.17 µM (inactive)	1.49 µM (inactive)	2.54 µM (inactive)	4.97 µM (inactive)	14.4 µM (inactive)	3.12 µM (inactive)	1.86 µM (inactive)	3.61 µM (inactive)	2.17 µM (inactive)	4.39 µM (inactive)	6.98 µM (inactive)	2.23 µM (inactive)	2.09 µM (inactive)	2.62 µM (inactive)	3.24 µM (inactive)	2.29 µM (inactive)	2.64 µM (inactive)	13.9 µM (inactive)
COc1ccccc1C1ON=C(c2ccc([N+](=O)[O-])cc2)N1C12CC3CC(CC(C3)C1)C2 (stereo not given)	> 100 µM (inactive)	> 100 µM (inactive)	> 100 µM (inactive)	12.1 µM (inactive)	> 100 µM (inactive)	> 100 µM (inactive)	44.7 µM (inactive)	59.6 µM (inactive)	20.8 µM (inactive)	> 100 µM (inactive)	47.9 µM (inactive)	> 100 µM (inactive)	> 100 µM (inactive)	> 100 µM (inactive)	29.2 µM (inactive)	45.4 µM (inactive)	80.2 µM (inactive)	> 100 µM (inactive)	61.5 µM (inactive)	> 100 µM (inactive)
Clc1ccc2c(NC3CCC(N4CCCCC4)CC3)ccnc2c1 (stereo not given)	27.4 µM (inactive)	18.2 µM (inactive)	35.8 µM (inactive)	18.2 µM (inactive)	21 µM (inactive)	52.5 µM (inactive)	30.7 µM (inactive)	15.2 µM (inactive)	18.1 µM (inactive)	20.1 µM (inactive)	15 µM (inactive)	29.2 µM (inactive)	18.3 µM (inactive)	27.7 µM (inactive)	12.6 µM (inactive)	11.4 µM (inactive)	19.1 µM (inactive)	22.2 µM (inactive)	20.2 µM (inactive)	18.4 µM (inactive)
COC(=O)c1c(C)nc(C)c(N=O)c1-c1ccccc1C(F)(F)F	> 100 µM (inactive)	36.1 µM (inactive)	15.8 µM (inactive)	15.3 µM (inactive)	17.5 µM (inactive)	20.5 µM (inactive)	21 µM (inactive)	26.5 µM (inactive)	73.8 µM (inactive)	19.1 µM (inactive)	80.4 µM (inactive)	17.7 µM (inactive)	> 100 µM (inactive)	15.5 µM (inactive)	17.3 µM (inactive)	15.7 µM (inactive)	> 100 µM (inactive)	11 µM (inactive)	15.8 µM (inactive)	13.8 µM (inactive)
C[N+](C)(C)c1ccc(C(N)C(=O)O)cc1 (stereo not given)	> 100 µM (inactive)	> 100 µM (inactive)	> 100 µM (inactive)	> 100 µM (inactive)	> 100 µM (inactive)	> 100 µM (inactive)	> 100 µM (inactive)	> 100 µM (inactive)	> 100 µM (inactive)	> 100 µM (inactive)	> 100 µM (inactive)	> 100 µM (inactive)	> 100 µM (inactive)	> 100 µM (inactive)	> 100 µM (inactive)	> 100 µM (inactive)	> 100 µM (inactive)	> 100 µM (inactive)	> 100 µM (inactive)	> 100 µM (inactive)
CC1Oc2cc3c(-c4c(O)cc(O)c5c(O)c6c(cc45)OC(C)C(C)C6=O)c(O)cc(O)c3c(O)c2C(=O)C1C (stereo not given)	0.365 µM (active)	0.101 µM (active)	0.254 µM (active)	0.0173 µM (active)	0.038 µM (active)	0.122 µM (active)	0.55 µM (active)	0.158 µM (active)	0.0489 µM (active)	0.0607 µM (active)	0.0259 µM (active)	0.0574 µM (active)	0.155 µM (active)	0.136 µM (active)	0.184 µM (active)	0.0289 µM (active)	0.061 µM (active)	0.231 µM (active)	0.265 µM (active)	0.27 µM (active)
CC1(C)OCC(C2OC(N3O[C@H](CI)C[C@@H]3c3ccccc3)C3OC(C)(C)OC23)O1 (stereo not given in full)	> 100 µM (inactive)	> 100 µM (inactive)	> 100 µM (inactive)	> 100 µM (inactive)	> 100 µM (inactive)	> 100 µM (inactive)	> 100 µM (inactive)	48.8 µM (inactive)	43 µM (inactive)	> 100 µM (inactive)	56.1 µM (inactive)	> 100 µM (inactive)	> 100 µM (inactive)	> 100 µM (inactive)	> 100 µM (inactive)	61.9 µM (inactive)	> 100 µM (inactive)	> 100 µM (inactive)	> 100 µM (inactive)	> 100 µM (inactive)
Cn1c(=O)c2c(O)cc(N)nc2n(C)c1=O	> 100 µM (inactive)	> 100 µM (inactive)	> 100 µM (inactive)	> 100 µM (inactive)	> 100 µM (inactive)	> 100 µM (inactive)	> 100 µM (inactive)	> 100 µM (inactive)	> 100 µM (inactive)	> 100 µM (inactive)	> 100 µM (inactive)	> 100 µM (inactive)	> 100 µM (inactive)	> 100 µM (inactive)	67.3 µM (inactive)	> 100 µM (inactive)	> 100 µM (inactive)	28.9 µM (inactive)	> 100 µM (inactive)	> 100 µM (inactive)
NCCP(=O)(O)O	> 100 µM (inactive)	> 100 µM (inactive)	> 100 µM (inactive)	> 100 µM (inactive)	> 100 µM (inactive)	> 100 µM (inactive)	> 100 µM (inactive)	> 100 µM (inactive)	> 100 µM (inactive)	> 100 µM (inactive)	> 100 µM (inactive)	> 100 µM (inactive)	> 100 µM (inactive)	> 100 µM (inactive)	> 100 µM (inactive)	> 100 µM (inactive)	> 100 µM (inactive)	> 100 µM (inactive)	> 100 µM (inactive)	> 100 µM (inactive)
CC(=O)Oc1c(C)c2c(c3ncccc13)OC(C)C2 (stereo not given)	16.2 µM (inactive)	18.1 µM (inactive)	14.4 µM (inactive)	14.8 µM (inactive)	15.5 µM (inactive)	17.3 µM (inactive)	17.2 µM (inactive)	14.5 µM (inactive)	16.7 µM (inactive)	15.1 µM (inactive)	10.8 µM (inactive)	6.98 µM (inactive)	20 µM (inactive)	14.2 µM (inactive)	14.7 µM (inactive)	18.8 µM (inactive)	14.7 µM (inactive)	14.6 µM (inactive)	16.3 µM (inactive)	22 µM (inactive)
CN1CCN(c2nc3ccccc3nc2C(=O)c2ccc(Cl)cc2)CC1	> 100 µM (inactive)	58.5 µM (inactive)	46.9 µM (inactive)	24.5 µM (inactive)	57.1 µM (inactive)	49.4 µM (inactive)	> 100 µM (inactive)	14.5 µM (inactive)	22.2 µM (inactive)	35.1 µM (inactive)	27.1 µM (inactive)	83.6 µM (inactive)	41.7 µM (inactive)	61 µM (inactive)	26.5 µM (inactive)	38.2 µM (inactive)	36.3 µM (inactive)	40.4 µM (inactive)	16.7 µM (inactive)	35.6 µM (inactive)
Nc1nc(Cl)c(N)c(NCC2(CO)CCC2)n1	> 100 µM (inactive)	> 100 µM (inactive)	> 100 µM (inactive)	> 100 µM (inactive)	> 100 µM (inactive)	94.2 µM (inactive)	> 100 µM (inactive)	75.9 µM (inactive)	> 100 µM (inactive)	> 100 µM (inactive)	> 100 µM (inactive)	> 100 µM (inactive)	> 100 µM (inactive)	> 100 µM (inactive)	76 µM (inactive)	> 100 µM (inactive)	> 100 µM (inactive)	> 100 µM (inactive)	> 100 µM (inactive)	> 100 µM (inactive)
